Data set [1] has as its target T1, NLRP3 (Homo sapiens, UniProt Q96P20). Nature of the data set: Human whole blood IL1β release assay. The settings on record: LPS 1 μg/ml, nigericin 10 μM, IL-1β AlphaLisa, 10 μM top dose (Example 2: top dose of 30 μM), read-out: HWB IC50. Format: cell-based. The method in brief: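 Healthy-donor heparinised human whole blood with 1 μg/ml LPS, compound (8-point half-log dilution, 10 μM top dose unless stated; 0.1% DMSO vehicle) for 3 h at 37 °C, then nigericin 10 μM final for 1 h. Supernatant IL-1β by AlphaLISA; IC50 from 4-parameter variable-slope fit.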

The nature of data set [2]: PK, intravenous administration. The class given is in vivo. Conditions: rat, plasma, male Sprague Dawley rats, dose about 1 mg/kg; for Vd: read-out: Vdss. The method in brief: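 Male Sprague Dawley rats (6-9 weeks); IV dosing via tail vein as solution in DMSO:water or DMSO:PBS (10:90), oral dosing in 0.5% methylcellulose after overnight fasting. Plasma sampled at 8 time-points to 24 h; parameters derived from LC-MS/MS data.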

Data set [3] has as its target T1, NLRP3. Nature of the data set: THP-1 cells pyroptosis assay. The class given is cell-based. Details: Seed THP-1 cells (25,000 cells/well) containing 1.0 μg/ml LPS; host or cells: THP-1. Conditions: LPS 1.0 μg/ml, nigericin 5 μM, resazurin readout, 10 μM top dose (Example 2: top dose of 30 μM). The method in brief:
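THP-1 cells (25,000/well) primed with 1 μg/ml LPS in serum-free RPMI, treated with compound (8-point dilution, 10 μM top unless stated; 0.1% DMSO) 3 h at 37°C, then nigericin 5 μM 1 h. Viability read by resazurin (100 μM, 1-2 h) fluorescence; IC50 from 4-parameter fit.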

T1 sequence (Q96P20 whole entry): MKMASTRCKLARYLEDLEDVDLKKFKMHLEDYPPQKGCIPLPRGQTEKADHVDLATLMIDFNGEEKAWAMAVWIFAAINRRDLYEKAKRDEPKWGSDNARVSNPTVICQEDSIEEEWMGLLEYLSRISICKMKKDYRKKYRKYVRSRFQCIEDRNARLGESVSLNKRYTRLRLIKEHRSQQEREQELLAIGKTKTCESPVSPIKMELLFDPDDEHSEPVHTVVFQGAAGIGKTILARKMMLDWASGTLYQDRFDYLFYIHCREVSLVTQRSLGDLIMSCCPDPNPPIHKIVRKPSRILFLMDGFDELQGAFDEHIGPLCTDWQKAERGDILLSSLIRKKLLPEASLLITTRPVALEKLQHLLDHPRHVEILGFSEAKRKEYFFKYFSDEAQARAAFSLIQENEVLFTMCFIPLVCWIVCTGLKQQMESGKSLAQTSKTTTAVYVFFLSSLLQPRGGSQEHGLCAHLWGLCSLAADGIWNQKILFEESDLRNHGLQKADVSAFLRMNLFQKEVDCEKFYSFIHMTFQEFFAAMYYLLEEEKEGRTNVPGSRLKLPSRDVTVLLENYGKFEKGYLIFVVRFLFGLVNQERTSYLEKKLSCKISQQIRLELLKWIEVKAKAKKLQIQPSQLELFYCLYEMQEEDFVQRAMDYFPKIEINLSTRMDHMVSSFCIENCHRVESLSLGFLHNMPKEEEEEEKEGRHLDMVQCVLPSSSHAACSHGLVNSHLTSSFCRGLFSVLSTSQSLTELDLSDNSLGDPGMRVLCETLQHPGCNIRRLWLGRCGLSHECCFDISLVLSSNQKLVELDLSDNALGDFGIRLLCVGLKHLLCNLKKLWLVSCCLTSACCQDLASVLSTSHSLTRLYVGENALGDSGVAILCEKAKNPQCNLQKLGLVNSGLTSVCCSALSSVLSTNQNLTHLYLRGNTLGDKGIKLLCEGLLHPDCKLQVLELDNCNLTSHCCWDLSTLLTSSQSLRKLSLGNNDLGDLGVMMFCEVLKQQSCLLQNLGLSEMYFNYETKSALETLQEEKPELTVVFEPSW

On to `O=S(=O)(c1nnc(Nc2c3c(cc4c2CCC4)CCC3)[nH]1)N1CC2(CCN(C3CC3)C2)C1` [Example 245, 5-((6-cyclopropyl-2,6-diazaspiro[3.4]octan-2-yl)sulfonyl)-N-(1,2,3,5,6,7-hexahydro-s-indacen-4-yl)-4H-1,2,4-triazol-3-amine], for which the IC50 at NLRP3 [1] is not above 5 µM. Moreover, in data set [2], the AUC came out at 393 ng·h/mL, the clearance turned out to be 49.6 mL/min/kg, the half-life was 0.74 h and the Vd was found to be 1.63 L/kg. The concentration for half-maximal inhibition (IC50) against NLRP3 [3] is not above 0.5 µM.

`CC(C)c1cc(F)cc(C(C)C)c1Nc1nnc(S(=O)(=O)N2CCC3(CCCN3C)CC2)[nH]1` [Example 247, N-(4-fluoro-2,6-diisopropylphenyl)-5-((i-methyl-1,8-diazaspiro[4.5]decan-8-yl)sulfonyl)-4H-1,2,4-triazol-3-amine]: at NLRP3 [1], the IC50 was not above 0.5 µM. Also, in data set [2], the AUC was 253 ng·h/mL, the clearance was found to be 72.5 mL/min/kg, the half-life is 2.72 h and the Vd was 12.7 L/kg. For the same compound, the IC50 at NLRP3 [3] is not above 0.5 µM.

As to `COc1cc(-c2cc(F)cc(C(C)C)c2Oc2nnc(S(=O)(=O)N3CC4(CCN(C)C4)C3)[nH]2)ccn1` [Example 250, 2-((5-(4-fluoro-2-isopropyl-6-(2-methoxypyridin-4-yl)phenoxy)-4H-1,2,4-triazol-3-yl)sulfonyl)-6-methyl-2,6-diazaspiro[3.4]octane], the IC50 at NLRP3 [1] was not above 5 µM. Moreover, in data set [2], the area under the curve (AUC) was found to be 392 ng·h/mL, the clearance worked out at 55.2 mL/min/kg, the half-life was 0.26 h and the Vd came to 0.6 L/kg. Further, the IC50 at NLRP3 [3] was not above 0.5 µM.

As for `COc1cc(-c2cc(F)cc(C(C)C)c2Oc2nnc(S(=O)(=O)N3CCC4(CCN4C)CC3)[nH]2)ccn1` [Example 252, 7-((5-(4-fluoro-2-isopropyl-6-(2-methoxypyridin-4-yl)phenoxy)-4H-1,2,4-triazol-3-yl)sulfonyl)-1-methyl-1,7-diazaspiro[3.5]nonane], on NLRP3 [1], the IC50 was not above 5 µM. Further, in data set [2], the exposure (AUC) amounted to 362 ng·h/mL, the clearance amounted to 51.1 mL/min/kg, the half-life is 0.426 h and the Vd came to 0.82 L/kg. On NLRP3 [3], the half-inhibitory concentration (IC50) is not above 1 µM.

On to `COc1cc(-c2cc(F)cc(C(C)C)c2Nc2nnc(S(=O)(=O)N3CCC(CN(C)C)C3)[nH]2)ccn1` (stereo not drawn) [Example 259, 5-((3-((dimethylamino)methyl)pyrrolidin-1-yl)sulfonyl)-N-(4-fluoro-2-isopropyl-6-(2-methoxypyridin-4-yl)phenyl)-4H-1,2,4-triazol-3-amine], for which the half-inhibitory concentration (IC50) on NLRP3 [1] is not above 1 µM. For the same compound, in data set [2], the AUC is 169 ng·h/mL, the clearance came to 90.1 mL/min/kg, the half-life is 2.23 h and the Vd came out at 9.57 L/kg. Besides, the IC50 against NLRP3 [3] is not above 0.5 µM.

As for `CC(C)N1CCC2(C1)CN(S(=O)(=O)c1nnc(Nc3c4c(cc5c3CCC5)CCC4)[nH]1)C2` [Example 264, N-(1,2,3,5,6,7-hexahydro-s-indacen-4-yl)-5-((6-isopropyl-2,6-diazaspiro[3.4]octan-2-yl)sulfonyl)-4H-1,2,4-triazol-3-amine], at NLRP3 [1], the 50% inhibitory concentration (IC50) is not above 0.5 µM. Further, in data set [2], the AUC was found to be 280 ng·h/mL, the clearance came out at 59.6 mL/min/kg, the half-life was 1.89 h and the Vd worked out at 5.78 L/kg. Besides, the IC50 at NLRP3 [3] is not above 0.5 µM.

Take `O=S(=O)(c1nnc(Nc2c3c(cc4c2CCC4)CCC3)[nH]1)N1CCC2(CCCN2)CC1` [Example 268, 5-((1,8-diazaspiro[4.5]decan-8-yl)sulfonyl)-N-(1,2,3,5,6,7-hexahydro-s-indacen-4-yl)-4H-1,2,4-triazol-3-amine]: the IC50 on NLRP3 [1] was not above 1 µM. Also, in data set [2], the AUC was determined as 175 ng·h/mL, the clearance turned out to be 95.3 mL/min/kg, the half-life was 2.52 h and the Vd came out at 12.1 L/kg. In addition, the IC50 against NLRP3 [3] was not above 0.5 µM.

For `CN1CCC12CCN(S(=O)(=O)c1nnc(Nc3c4c(cc5c3CCC5)CCC4)[nH]1)CC2` [Example 270, N-(1,2,3,5,6,7-hexahydro-s-indacen-4-yl)-5-((1-methyl-1,7-diazaspiro[3.5]nonan-7-yl)sulfonyl)-4H-1,2,4-triazol-3-amine], the half-maximal inhibitory concentration (IC50) at NLRP3 [1] is not above 0.5 µM. In addition, in data set [2], the AUC stood at 236 ng·h/mL, the clearance turned out to be 71 mL/min/kg, the half-life was 2.53 h and the Vd was determined as 9.16 L/kg. On NLRP3 [3], this compound gave an IC50 not above 0.5 µM.

Take `CN(C)C1CCCN(S(=O)(=O)c2nnc(Nc3c4c(cc5c3CCC5)CCC4)[nH]2)CC1` (stereo not drawn) [Example 271, 1-((5-((1,2,3,5,6,7-hexahydro-s-indacen-4-yl)amino)-4H-1,2,4-triazol-3-yl)sulfonyl)-N,N-dimethylazepan-4-amine]: the IC50 at NLRP3 [1] was not above 1 µM. Further, in data set [2], the AUC amounted to 221 ng·h/mL, the clearance was found to be 75 mL/min/kg, the half-life is 3.53 h and the Vd came out at 14.9 L/kg. The IC50 against NLRP3 [3] is not above 0.5 µM.

With `CN1CCC2(C1)CN(S(=O)(=O)c1nnc(Nc3c4c(cc5c3CCC5)CCC4)[nH]1)C2` [Example 274, N-(1,2,3,5,6,7-hexahydro-s-indacen-4-yl)-5-((6-methyl-2,6-diazaspiro[3.4]octan-2-yl)sulfonyl)-4H-1,2,4-triazol-3-amine], the IC50 at NLRP3 [1] is not above 0.5 µM. Moreover, in data set [2], the AUC was determined as 271 ng·h/mL, the clearance stood at 61.6 mL/min/kg, the half-life is 1.64 h and the Vd came out at 6.2 L/kg. For the same compound, the 50% inhibitory concentration (IC50) on NLRP3 [3] is not above 0.5 µM.

Consider `CN1CCC2(CCN(S(=O)(=O)c3nnc(Nc4c5c(cc6c4CCC6)CCC5)[nH]3)CC2)C1` [Example 276, N-(1,2,3,5,6,7-hexahydro-s-indacen-4-yl)-5-((2-methyl-2,8-diazaspiro[4.5]decan-8-yl)sulfonyl)-4H-1,2,4-triazol-3-amine], for which the IC50 on NLRP3 [1] was not above 0.5 µM. Besides, in data set [2], the AUC amounted to 239 ng·h/mL, the clearance came out at 69.7 mL/min/kg, the half-life is 1.94 h and the Vd is 7.51 L/kg. The same compound registered an IC50 on NLRP3 [3] not above 0.5 µM.

As to `CN1CCCC12CCN(S(=O)(=O)c1nnc(Nc3c4c(cc5c3CCC5)CCC4)[nH]1)CC2` [Example 278, N-(1,2,3,5,6,7-hexahydro-s-indacen-4-yl)-5-((1-methyl-1,8-diazaspiro[4.5]decan-8-yl)sulfonyl)-4H-1,2,4-triazol-3-amine], the 50% inhibitory concentration (IC50) at NLRP3 [1] was not above 0.5 µM. Also, in data set [2], the exposure (AUC) was 278 ng·h/mL, the clearance is 60 mL/min/kg, the half-life was 1.8 h and the Vd came out at 5.9 L/kg. At NLRP3 [3], this compound displayed an IC50 not above 0.5 µM.

Consider `COc1cc(-c2cc(F)c3c(c2Nc2nnc(S(=O)(=O)N4CC5(CCN(C)C5)C4)[nH]2)CCC3)ccn1` [Example 299, N-(7-fluoro-5-(2-methoxypyridin-4-yl)-2,3-dihydro-1H-inden-4-yl)-5-((6-methyl-2,6-diazaspiro[3.4]octan-2-yl)sulfonyl)-4H-1,2,4-triazol-3-amine], for which the IC50 at NLRP3 [1] was not above 0.5 µM. For the same compound, in data set [2], the AUC amounted to 195 ng·h/mL, the clearance came out at 103 mL/min/kg, the half-life was 1.33 h and the Vd is 5.21 L/kg. Besides, at NLRP3 [3], the half-inhibitory concentration (IC50) is not above 0.5 µM.

Turning to `CN(C)C1CCN(S(=O)(=O)c2nnc(Nc3c4c(c(Cl)c5c3CCC5)CCC4)[nH]2)CC1` [Example 300, 1-((5-((8-chloro-1,2,3,5,6,7-hexahydro-s-indacen-4-yl)amino)-1H-1,2,4-triazol-3-yl)sulfonyl)-N,N-dimethylpiperidin-4-amine], on NLRP3 [1], the 50% inhibitory concentration (IC50) was not above 5 µM. Besides, in data set [2], the AUC was determined as 235 ng·h/mL, the clearance worked out at 70.8 mL/min/kg, the half-life is 2.65 h and the Vd was 10.6 L/kg. The compound further registered a half-maximal inhibitory concentration (IC50) against NLRP3 [3] not above 0.5 µM.

Turning to `CC(C)c1cc(F)cc(C(C)C)c1Nc1nnc(S(=O)(=O)N2CCC(N(C)C)CC2)[nH]1` [Example 303, 1-((5-((4-fluoro-2,6-diisopropylphenyl)amino)-1H-1,2,4-triazol-3-yl)sulfonyl)-N,N-dimethylpiperidin-4-amine], the concentration for half-maximal inhibition (IC50) at NLRP3 [1] is not above 5 µM. Also, in data set [2], the exposure (AUC) turned out to be 200 ng·h/mL, the clearance stood at 80.7 mL/min/kg, the half-life was 2.45 h and the Vd came out at 11.5 L/kg. On NLRP3 [3], the 50% inhibitory concentration (IC50) was not above 1 µM.

`CC(C)(O)Cn1ccc(S(=O)(=O)c2nnc(Nc3c4c(cc5c3CCC5)CCC4)[nH]2)n1` [Example 328, 1-(3-((5-((1,2,3,5,6,7-hexahydro-s-indacen-4-yl)amino)-4H-1,2,4-triazol-3-yl)sulfonyl)-1H-pyrazol-1-yl)-2-methylpropan-2-ol]: on NLRP3 [1], the IC50 is not above 10 µM. In data set [2], the AUC is 1240 ng·h/mL, the clearance is 13.5 mL/min/kg, the half-life is 0.653 h and the Vd was determined as 0.518 L/kg. The compound further displayed a half-inhibitory concentration (IC50) at NLRP3 [3] not above 0.5 µM.

Values taken from patent US20210261512A1, “NOVEL COMPOUNDS” (INFLAZOME LIMITED, priority 2018, published 2021).
